Results reported in article PMC7316778 (Nature Communications, 2020).
Where “and” joins values, the source holds several entries; their conditions need not be identical. Equal values may be shown once. Read-outs that look alike come from different tables or passages of the source.

Legend:
Test in all cases: SelectScreen kinase assay
PASK = PASK (Homo sapiens, UniProt Q96RG2); conditions: for Inhibition at 1 µM (%): PASK, ZLYTE, ATP Km app
Procedure: (§1) Selectivity profiling assays were performed by the Invitrogen SelectScreen™ Services. […] The concentration of ATP was selected to be equal to the KM, unless indicated otherwise.

MAP4K5 (KHS1) = MAP4K5 (KHS1) (Homo sapiens, UniProt Q9Y4K4); conditions: 1 h, 1 μM WEL028, 1 h preincubation
Procedure: as §1

MAP4K3 (GLK) = target: T1, MAP4K3 (GLK) (Homo sapiens, UniProt Q8IVH8)
T1 sequence (Q8IVH8 1-894): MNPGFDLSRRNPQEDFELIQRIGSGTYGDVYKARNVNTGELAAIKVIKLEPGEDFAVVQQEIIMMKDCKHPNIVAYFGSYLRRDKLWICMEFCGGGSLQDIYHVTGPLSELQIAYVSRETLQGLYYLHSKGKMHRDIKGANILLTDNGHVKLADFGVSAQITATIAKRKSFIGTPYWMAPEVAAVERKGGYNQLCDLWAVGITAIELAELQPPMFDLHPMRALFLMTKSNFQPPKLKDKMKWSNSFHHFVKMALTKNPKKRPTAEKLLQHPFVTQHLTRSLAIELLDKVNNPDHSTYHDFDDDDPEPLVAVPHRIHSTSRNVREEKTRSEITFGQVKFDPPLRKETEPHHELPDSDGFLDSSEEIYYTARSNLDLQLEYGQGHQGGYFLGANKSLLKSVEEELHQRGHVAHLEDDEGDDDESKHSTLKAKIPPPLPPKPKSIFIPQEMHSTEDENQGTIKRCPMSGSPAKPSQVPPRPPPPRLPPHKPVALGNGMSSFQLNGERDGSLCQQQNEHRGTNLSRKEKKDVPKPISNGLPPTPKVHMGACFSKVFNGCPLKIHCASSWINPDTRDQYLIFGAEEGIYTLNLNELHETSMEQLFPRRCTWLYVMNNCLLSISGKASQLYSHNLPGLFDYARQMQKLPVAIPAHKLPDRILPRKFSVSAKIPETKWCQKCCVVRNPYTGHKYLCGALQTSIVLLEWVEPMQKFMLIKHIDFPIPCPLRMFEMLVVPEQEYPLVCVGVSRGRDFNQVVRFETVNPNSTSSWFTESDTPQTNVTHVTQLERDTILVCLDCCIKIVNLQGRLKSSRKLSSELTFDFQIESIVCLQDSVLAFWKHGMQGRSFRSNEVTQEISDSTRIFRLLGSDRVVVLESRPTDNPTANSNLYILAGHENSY
Procedure: as §1

PHKG1 = PHKG1 (Homo sapiens, UniProt Q16816); conditions: 1 h, 1 μM WEL028, 1 h preincubation
Procedure: as §1

STK3 (MST2) = STK3 (MST2) (Homo sapiens, UniProt Q13188)
Procedure: as §1

RPS6KA4 (MSK2) = RPS6KA4 (MSK2) (Homo sapiens, UniProt O75676)
Procedure: as §1

INSR = INSR (Homo sapiens, UniProt P06213)
Procedure: as §1

ACVR1B (ALK4) = target: T2, ACVR1B (ALK4) (Homo sapiens, UniProt P36896); conditions: for Inhibition at 1 µM (%): ACVR1B (ALK4), ZLYTE, ATP Km app
T2 sequence (P36896 24-505): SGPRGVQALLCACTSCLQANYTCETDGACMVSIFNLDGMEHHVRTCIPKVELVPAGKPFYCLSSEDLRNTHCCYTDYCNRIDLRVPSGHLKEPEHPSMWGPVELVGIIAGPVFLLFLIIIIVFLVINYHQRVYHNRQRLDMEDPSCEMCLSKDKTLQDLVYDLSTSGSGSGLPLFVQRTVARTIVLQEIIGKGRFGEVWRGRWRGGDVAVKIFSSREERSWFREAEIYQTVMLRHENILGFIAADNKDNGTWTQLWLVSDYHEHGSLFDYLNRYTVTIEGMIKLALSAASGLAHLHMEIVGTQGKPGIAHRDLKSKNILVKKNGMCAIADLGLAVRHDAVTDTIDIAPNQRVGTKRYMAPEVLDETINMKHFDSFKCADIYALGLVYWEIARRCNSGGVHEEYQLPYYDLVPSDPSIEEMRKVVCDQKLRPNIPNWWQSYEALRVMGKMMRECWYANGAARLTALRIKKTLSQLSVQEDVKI
Procedure: as §1

MELK = MELK (Homo sapiens, UniProt Q14680)
Procedure: as §1

PIM2 = PIM2 (Homo sapiens, UniProt Q9P1W9)
Procedure: as §1

PRKCD (PKC delta) = PRKCD (PKC delta) (Homo sapiens, UniProt Q05655); conditions: 1 h, 1 μM WEL028, 1 h preincubation
Procedure: as §1

NTRK3 (TRKC) = NTRK3 (TRKC) (Homo sapiens, UniProt Q16288)
Procedure: as §1

STK23 (MSSK1) = STK23 (MSSK1) (Homo sapiens, UniProt Q9UPE1); conditions: for Inhibition at 1 µM (%): ZLYTE, ATP Km app
Procedure: as §1

MYO3A (MYO3 alpha) = MYO3A (MYO3 alpha) (Homo sapiens, UniProt Q8NEV4)
Procedure: as §1

[1] = 1 h, 1 μM WEL028, 1 h preincubation

Chain of STK23 (MSSK1) (Q9UPE1 whole entry): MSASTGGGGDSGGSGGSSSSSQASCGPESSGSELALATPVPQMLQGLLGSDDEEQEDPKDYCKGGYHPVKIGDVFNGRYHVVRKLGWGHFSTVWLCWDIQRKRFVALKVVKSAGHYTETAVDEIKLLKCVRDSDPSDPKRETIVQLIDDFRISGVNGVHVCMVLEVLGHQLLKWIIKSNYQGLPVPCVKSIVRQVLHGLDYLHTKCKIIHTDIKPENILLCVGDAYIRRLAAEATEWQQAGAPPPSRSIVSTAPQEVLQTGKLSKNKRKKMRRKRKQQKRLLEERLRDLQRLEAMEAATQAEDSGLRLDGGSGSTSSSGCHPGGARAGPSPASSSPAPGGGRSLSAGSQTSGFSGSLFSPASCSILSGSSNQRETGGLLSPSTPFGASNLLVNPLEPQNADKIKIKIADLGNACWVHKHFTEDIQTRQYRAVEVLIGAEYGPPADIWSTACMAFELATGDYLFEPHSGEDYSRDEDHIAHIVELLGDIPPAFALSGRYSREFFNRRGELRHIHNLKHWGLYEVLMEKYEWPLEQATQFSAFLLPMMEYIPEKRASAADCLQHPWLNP
Chain of NTRK3 (TRKC) (Q16288 32-839): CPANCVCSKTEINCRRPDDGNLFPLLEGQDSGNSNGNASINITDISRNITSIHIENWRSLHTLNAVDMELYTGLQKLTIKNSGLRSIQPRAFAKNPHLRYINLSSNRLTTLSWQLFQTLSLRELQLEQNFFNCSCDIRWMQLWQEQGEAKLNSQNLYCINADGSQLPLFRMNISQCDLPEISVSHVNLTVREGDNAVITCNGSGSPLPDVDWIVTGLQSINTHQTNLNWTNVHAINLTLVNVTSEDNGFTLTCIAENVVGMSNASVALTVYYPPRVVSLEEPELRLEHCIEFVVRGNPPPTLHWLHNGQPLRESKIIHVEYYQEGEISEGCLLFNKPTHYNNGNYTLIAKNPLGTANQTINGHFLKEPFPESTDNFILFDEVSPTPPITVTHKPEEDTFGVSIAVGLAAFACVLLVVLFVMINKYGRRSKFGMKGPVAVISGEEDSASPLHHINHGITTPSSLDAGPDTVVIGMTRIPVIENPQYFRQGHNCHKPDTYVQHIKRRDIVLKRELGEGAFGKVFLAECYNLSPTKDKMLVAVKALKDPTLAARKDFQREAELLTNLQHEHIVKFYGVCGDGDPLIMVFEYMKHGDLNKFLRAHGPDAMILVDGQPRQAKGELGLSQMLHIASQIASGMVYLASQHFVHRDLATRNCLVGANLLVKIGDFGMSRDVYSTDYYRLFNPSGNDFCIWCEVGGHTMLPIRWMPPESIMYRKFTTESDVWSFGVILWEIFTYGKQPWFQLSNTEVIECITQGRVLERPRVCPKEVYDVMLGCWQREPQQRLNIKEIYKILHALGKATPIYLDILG
Chain of PASK (Q96RG2 whole entry): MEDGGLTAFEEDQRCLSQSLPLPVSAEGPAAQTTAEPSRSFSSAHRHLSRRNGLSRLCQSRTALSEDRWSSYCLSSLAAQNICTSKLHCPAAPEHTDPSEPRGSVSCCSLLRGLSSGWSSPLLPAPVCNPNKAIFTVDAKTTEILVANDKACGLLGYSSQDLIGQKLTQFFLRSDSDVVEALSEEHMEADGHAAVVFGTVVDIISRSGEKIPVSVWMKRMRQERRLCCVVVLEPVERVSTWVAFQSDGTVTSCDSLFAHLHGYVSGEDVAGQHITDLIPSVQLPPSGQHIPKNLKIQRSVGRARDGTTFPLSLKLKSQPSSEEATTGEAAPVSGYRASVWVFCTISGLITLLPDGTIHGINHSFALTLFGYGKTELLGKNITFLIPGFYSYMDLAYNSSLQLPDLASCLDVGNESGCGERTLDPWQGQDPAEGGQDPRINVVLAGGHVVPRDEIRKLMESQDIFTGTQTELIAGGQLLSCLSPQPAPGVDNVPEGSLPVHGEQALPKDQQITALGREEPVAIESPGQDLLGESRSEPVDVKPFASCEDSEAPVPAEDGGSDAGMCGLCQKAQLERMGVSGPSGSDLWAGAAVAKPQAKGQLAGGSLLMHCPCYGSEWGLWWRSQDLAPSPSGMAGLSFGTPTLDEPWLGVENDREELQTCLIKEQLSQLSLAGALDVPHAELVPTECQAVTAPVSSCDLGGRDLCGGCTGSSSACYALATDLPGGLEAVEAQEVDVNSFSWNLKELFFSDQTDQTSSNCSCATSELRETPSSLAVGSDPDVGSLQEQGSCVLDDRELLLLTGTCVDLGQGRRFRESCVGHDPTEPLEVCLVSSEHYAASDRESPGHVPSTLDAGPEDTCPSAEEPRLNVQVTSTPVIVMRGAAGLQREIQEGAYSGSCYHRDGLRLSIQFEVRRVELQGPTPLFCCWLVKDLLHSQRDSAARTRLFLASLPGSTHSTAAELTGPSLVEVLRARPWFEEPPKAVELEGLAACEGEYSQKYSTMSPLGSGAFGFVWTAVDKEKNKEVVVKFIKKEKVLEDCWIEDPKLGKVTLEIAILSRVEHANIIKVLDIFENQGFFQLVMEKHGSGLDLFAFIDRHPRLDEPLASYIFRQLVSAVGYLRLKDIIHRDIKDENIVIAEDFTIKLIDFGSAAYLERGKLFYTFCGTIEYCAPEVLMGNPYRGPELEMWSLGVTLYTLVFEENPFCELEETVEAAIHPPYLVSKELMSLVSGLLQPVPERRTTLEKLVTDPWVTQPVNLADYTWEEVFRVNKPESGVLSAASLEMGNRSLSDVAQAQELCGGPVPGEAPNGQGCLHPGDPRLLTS
Chain of RPS6KA4 (MSK2) (O75676 whole entry): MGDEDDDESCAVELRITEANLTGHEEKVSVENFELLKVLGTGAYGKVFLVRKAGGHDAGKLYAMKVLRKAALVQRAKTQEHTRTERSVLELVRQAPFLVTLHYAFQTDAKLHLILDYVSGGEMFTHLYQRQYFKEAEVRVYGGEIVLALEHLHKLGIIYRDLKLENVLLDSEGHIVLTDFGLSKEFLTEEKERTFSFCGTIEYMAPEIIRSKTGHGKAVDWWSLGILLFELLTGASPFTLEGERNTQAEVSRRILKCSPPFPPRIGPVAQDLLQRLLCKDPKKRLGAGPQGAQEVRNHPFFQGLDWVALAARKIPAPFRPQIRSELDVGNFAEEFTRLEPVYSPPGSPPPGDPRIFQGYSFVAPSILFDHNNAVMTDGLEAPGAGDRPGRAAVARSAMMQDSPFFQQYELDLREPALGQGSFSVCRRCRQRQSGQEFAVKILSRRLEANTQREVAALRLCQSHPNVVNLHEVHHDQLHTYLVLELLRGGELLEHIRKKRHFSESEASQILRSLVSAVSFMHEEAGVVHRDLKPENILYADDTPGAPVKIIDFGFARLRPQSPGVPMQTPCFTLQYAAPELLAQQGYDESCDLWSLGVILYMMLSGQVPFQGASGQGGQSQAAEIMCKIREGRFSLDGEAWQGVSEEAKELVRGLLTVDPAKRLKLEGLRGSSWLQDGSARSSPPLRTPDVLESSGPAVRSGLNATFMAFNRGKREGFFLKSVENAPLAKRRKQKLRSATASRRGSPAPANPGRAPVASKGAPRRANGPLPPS
Chain of MYO3A (MYO3 alpha) (Q8NEV4 whole entry): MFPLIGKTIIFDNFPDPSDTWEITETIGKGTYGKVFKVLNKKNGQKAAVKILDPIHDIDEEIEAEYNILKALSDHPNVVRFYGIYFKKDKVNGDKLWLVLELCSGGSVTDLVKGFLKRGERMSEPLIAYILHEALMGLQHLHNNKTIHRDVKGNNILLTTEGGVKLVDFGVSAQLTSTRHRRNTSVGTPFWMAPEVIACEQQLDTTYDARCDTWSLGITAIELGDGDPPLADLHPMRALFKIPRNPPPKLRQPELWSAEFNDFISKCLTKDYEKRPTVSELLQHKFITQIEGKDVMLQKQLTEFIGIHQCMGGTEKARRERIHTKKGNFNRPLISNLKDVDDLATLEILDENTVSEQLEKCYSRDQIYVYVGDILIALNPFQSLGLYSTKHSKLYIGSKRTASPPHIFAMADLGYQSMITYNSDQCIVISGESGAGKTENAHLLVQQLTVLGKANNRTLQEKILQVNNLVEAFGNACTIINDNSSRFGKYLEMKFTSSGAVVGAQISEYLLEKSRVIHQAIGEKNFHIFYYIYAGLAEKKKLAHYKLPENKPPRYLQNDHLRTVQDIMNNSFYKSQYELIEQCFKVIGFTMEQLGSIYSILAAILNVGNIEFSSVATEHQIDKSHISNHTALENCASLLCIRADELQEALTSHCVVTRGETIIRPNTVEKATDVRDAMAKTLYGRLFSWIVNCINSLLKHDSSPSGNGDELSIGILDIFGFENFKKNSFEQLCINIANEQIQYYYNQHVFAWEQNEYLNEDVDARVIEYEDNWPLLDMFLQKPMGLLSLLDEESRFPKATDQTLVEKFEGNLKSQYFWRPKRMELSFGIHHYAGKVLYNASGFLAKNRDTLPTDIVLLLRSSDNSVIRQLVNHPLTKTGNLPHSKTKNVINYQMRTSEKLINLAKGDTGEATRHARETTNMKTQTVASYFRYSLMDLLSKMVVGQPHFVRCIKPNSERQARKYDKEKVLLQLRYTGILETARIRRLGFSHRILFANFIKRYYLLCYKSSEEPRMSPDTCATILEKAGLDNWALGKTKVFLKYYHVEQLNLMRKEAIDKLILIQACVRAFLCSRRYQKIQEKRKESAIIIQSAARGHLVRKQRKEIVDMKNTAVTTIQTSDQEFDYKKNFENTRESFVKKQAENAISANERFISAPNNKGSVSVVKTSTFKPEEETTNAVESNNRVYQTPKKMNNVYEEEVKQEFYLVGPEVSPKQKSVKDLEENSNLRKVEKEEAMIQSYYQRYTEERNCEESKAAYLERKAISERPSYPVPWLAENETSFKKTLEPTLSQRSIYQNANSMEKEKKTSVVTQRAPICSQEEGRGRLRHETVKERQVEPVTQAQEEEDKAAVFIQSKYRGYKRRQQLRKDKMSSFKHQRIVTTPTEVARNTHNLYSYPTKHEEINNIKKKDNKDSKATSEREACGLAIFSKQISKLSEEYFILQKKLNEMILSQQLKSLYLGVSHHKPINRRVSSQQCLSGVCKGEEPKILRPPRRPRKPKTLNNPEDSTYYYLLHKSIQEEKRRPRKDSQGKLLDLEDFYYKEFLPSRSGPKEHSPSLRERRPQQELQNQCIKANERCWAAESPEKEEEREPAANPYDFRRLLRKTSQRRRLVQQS

C#CCOc1ccc(Nc2ncc(Cl)c(Nc3ccccc3NC(=O)C=C)n2)c(OC)c1 [Compound 6]
inhibition at 1 µM (PASK; [1]): 2% | Inhibition at 1 µM (%) (PASK): -3% | Inhibition at 1 µM (%) (PASK; listed as WEL028, 1 µM): 7% | inhibition at 1 µM (MAP4K5 (KHS1)): -5% | Inhibition (%) (MAP4K3 (GLK); 1 μM WEL028, 1 h preincubation): 3% | Inhibition at 1 µM (%) (MAP4K3 (GLK); MAP4K3 (GLK), 1 µM, LanthaScreen Binding, listed as WEL028, 1 µM): 2% | inhibition at 1 µM (MAP4K3 (GLK); read-out: Inhibition at 1 µM (%), MAP4K3 (GLK), 1 µM, LanthaScreen Binding): 4% | inhibition at 1 µM (PHKG1): -2% | Inhibition at 1 µM (%) (STK3 (MST2); 1 µM, ZLYTE, ATP Km app): 15% | inhibition at 1 µM (STK3 (MST2); [1]): 5% | Inhibition at 1 µM (%) (RPS6KA4 (MSK2); 1 µM, ZLYTE, ATP Km app, listed as WEL028, 1 µM): -4% and 6% | inhibition at 1 µM (RPS6KA4 (MSK2); [1]): 1% | inhibition at 1 µM (INSR; 1 h): 11% | inhibition at 1 µM (INSR; read-out: Inhibition at 1 µM (%)): 11% | inhibition at 1 µM (ACVR1B (ALK4); [1]): 1% | Inhibition at 1 µM (%) (ACVR1B (ALK4)): -2% | Inhibition at 1 µM (%) (ACVR1B (ALK4); listed as WEL028, 1 µM): 5% | inhibition at 1 µM (MELK; [1]): -2% | Inhibition at 1 µM (%) (MELK; MELK, 1 µM, ZLYTE, ATP Km app, listed as WEL028, 1 µM): -3% | inhibition at 1 µM (PIM2; [1]): -4% | Inhibition at 1 µM (%) (PIM2; PIM2, 1 µM, ZLYTE, ATP Km app): -3% | inhibition at 1 µM (PRKCD (PKC delta)): 14% | inhibition at 1 µM (NTRK3 (TRKC); [1]): 4% | Inhibition at 1 µM (%) (NTRK3 (TRKC); NTRK3 (TRKC), 1 µM, ZLYTE, ATP Km app, listed as WEL028, 1 µM): 0% and 8% | Inhibition at 1 µM (%) (STK23 (MSSK1)): 2% | Inhibition at 1 µM (%) (STK23 (MSSK1); listed as WEL028, 1 µM): -4% | inhibition at 1 µM (STK23 (MSSK1); [1]): -1% | inhibition at 1 µM (MYO3A (MYO3 alpha); [1]): 17% | Inhibition at 1 µM (%) (MYO3A (MYO3 alpha); MYO3A (MYO3 alpha), 1 µM, LanthaScreen Binding, listed as WEL028, 1 µM): 16% | inhibition at 1 µM (MYO3A (MYO3 alpha); read-out: Inhibition at 1 µM (%), MYO3A (MYO3 alpha), 1 µM, LanthaScreen Binding): 18%
